# Source: patent US20150320723A1, “Use of Small Molecule Unfolder Protein Response Modulators to Treat Tumors With Active Sonic Hedgehog (SSH) Signaling Due To Smoothened (SMO) Mutation” (ST. JUDE CHILDREN'S RESEARCH HOSPITAL, priority 2013, published 2015)
# Entries after “also recorded” stand apart in the source; their conditions may differ.
# Columns and labels:
# [1] = test system: C320A-mediated ectopic stabilization of Ci; test: Immunofluorescence of wing imaginal discs from drug-fed larvae: full-length Ci; format: in vivo, Drosophila; conditions: discs from thapsigargin-fed larvae at 22° C. vs vehicle
# Description: (§1) To confirm that thapsigargin treatment of transgenic Drosophila would not nonspecifically alter UAS/GAL4 transgene expression, the effect of feeding thapsigargin or vehicle control to larvae expressing a GFP transgene under control of the MS1096-Gal4 wing pouch driver was first tested (FIG. 8A). […] Next either wild type or C320A Myc-Smo proteins were expressed at 22° C. under control of MS1096-Gal4, and grew larvae on food containing either vehicle or thapsigargin (FIGS. 8C-D). Consistent with the in vitro results, wings from wild type Myc-Smo expressing flies were unaffected by thapsigargin treatment (FIGS. 8C-C′ compared to B, control).
# (§2) For drug treatment, 1 to 24 hour MS1096>myc-smoC320A embryos were collected and transferred to vials containing 2 mL Jazz agarose containing vehicle (ethanol) or thapsigargin (Sigma) at a final concentration of 1 uM. Drug feeding was performed across two separate crosses and multiple progeny analyzed. Representative wings from the resulting adult flies were mounted and imaged as above.
# (§3) pAc-myc-smo constructs were expressed in Schneider 2 (S2) cells as described (Carroll et al., 2012 [31]). […] For all indirect immunofluorescence, the indicated primary antibodies were detected using Alexa Fluor (Invitrogen) secondary antibodies conjugated to 488 or 555 fluorophores. […]
# [2] = test system: GFP transgene under control of MS1096-Gal4; test: Thapsigargin feeding of MS1096>GFP larvae: transgene expression in wing imaginal discs; format: in vivo, Drosophila; conditions: larvae fed thapsigargin (1 uM in food) at 22° C.
# Description: as §1, §2
# [3] = test system: Myc-SmoC320A protein; test: Immunofluorescence of wing imaginal discs from drug-fed larvae: Myc-SmoC320A protein; format: in vivo, Drosophila; conditions: discs from thapsigargin-fed larvae at 22° C. vs vehicle
# Description: as §1, §2, §3
# [4] = test system: gli1 expression in cells expressing wild type mSmo; test: qPCR analysis of gli1 expression in NIH3T3 cells expressing wild type mSmo; format: cell-based, mouse; conditions: wild type mSmo-expressing NIH3T3 cells with thapsigargin; normalized to GAPDH
# Description: (§4) Next, it was decided to determine whether the effects observed following thermal ER stress induction could be recapitulated by an ER stress modulator that is specific to the UPR. To this end, Smo-expressing cells were treated with the potent ER stress inducing compound thapsigargin. Wild type, C318A or M2 mSmo proteins was expressed in NIH3T3 cells, and treated with vehicle or thapsigargin for 4 hours prior to lysis (FIG. 6A). […] The exact mechanism by which gli1 expression is increased in the wild type mSmo background in response to thapsigargin was not known.
# (§5) To assess gli1 and smo expression, NIH3T3 cells were plated as above and transfected using Fugene 6 (Promega). Approximately 30 hours post transfection, culture media was replaced with complete media containing 250 nM Thapsigargin or vehicle (ethanol) control. RNA was extracted using RNeasy kit (Qiagen) ˜16 hours after media exchange. cDNA was synthesized from 5 ug of RNA using SuperScript III first strand synthesis system (Invitrogen). qPCR reactions were performed on cDNA diluted 1:10 using SYBR Green PCR master mix (Applied Biosystems). GAPDH was used as a reference gene and results were analyzed using a standard 2^−ααCt method (Livak & Schmittgen, 2001 [63]). The following gene specific primers were used: […]
# qPCR analysis was performed three times in triplicate, and all data pooled. […]
# [5] = test system: smo expression; test: qPCR analysis of smo expression in NIH3T3 cells expressing wild type or M2 mSmo; format: cell-based, mouse; conditions: thapsigargin treatment
# Description: as §5
# (§6) qPCR analysis was performed three times in triplicate, and all data pooled. Error bars indicate standard error of the mean.
# [6] = test system: mSmoM2-induced gli1 expression; test: qPCR analysis of endogenous gli1 induction in NIH3T3 cells expressing mSmoM2; format: cell-based, mouse
# Description: as §4
# as §5, with “Approximately 30 hours post transfection, culture media was replaced with complete media containing 250 nM Thapsigargin or vehicle (ethanol) control.” left out
# as §6
# [7] = test system: wild type mSmo; test: Thapsigargin sensitivity analysis: mSmo protein stability in NIH3T3 cells, western blot of whole-cell lysates; format: cell-based, mouse; conditions: 1 uM thapsigargin, 4 hours prior to lysis, vs vehicle
# Description: as §4
# (§7) For protein stability analysis in mammalian cells, ˜1×10^6NIH3T3 cells were transfected with 2 ug of wild type or mutant pcDNA3.1-amino expression vector (Carroll et al., 2012 [31]). For temperature sensitivity analysis, transfected cells were maintained at 37° C. for ˜44 hours, and then shifted to 40° C. for 4 hours prior to lysis. Whole-cell lysates were prepared in modified RIPA buffer (50 mM Tris-HCl, pH 7.4, 150 mM NaCl, 0.25% deoxycholic acid, 1% NP-40, 1 mM EDTA, 0.1% SDS, 0.5 mM DTT, and 1× PIC (Roche)) by rocking for 30 minutes at 4° C. as described (Nachtergaele et al., 2012 [62]). Cell extracts were cleared by centrifuging at 16,000×g at 4° C. for 45 minutes. Supernatants were collected and analyzed by SDS-Page and western blot using anti-GADD153/CHOP (B-3, SCBT) anti-Smo (E5, SCBT) and anti-tubulin (Cell Signaling) antibodies. For thapsigargin sensitivity analysis, NIH3T3 cells expressing wild type or mutant mSmo protein at 37° C. were treated with vehicle (ethanol) or 1 uM thapsigargin (Sigma) in DMEM containing 0.5% fetal calf serum for 4 hrs prior to lysis. Whole-cell lysates were prepared in modified RIPA buffer and analyzed as above.
# [8] = test system: C318A mSmo; test: as above; format: cell-based, mouse; conditions: 1 uM thapsigargin, 4 hours prior to lysis, vs vehicle
# Description: as §4, §7
# [9] = test system: M2 mSmo (mSmoM2); test: as above; format: cell-based, mouse; conditions: 1 uM thapsigargin, 4 hours prior to lysis, vs vehicle
# Description: as §4, §7
# [10] = test system: wings from wild type Myc-Smo expressing flies; test: Thapsigargin feeding of larvae: adult wing phenotype, wild type Myc-Smo; format: in vivo, Drosophila; conditions: larvae grown at 22° C. on food containing thapsigargin (1 uM) vs vehicle
# Description: as §1
# (§8) Fly stocks were maintained at 18° C. on Jazz mix agarose (Fisher). Crosses were performed at 22° C. or 29° C. as indicated. UAS-myc-smo, UAS-myc-smoC320A and UAS-mycsmoC339A (Carroll et al., 2012 [31]) were expressed under control of MS1096-Gal4. UAS-Xbp1-GFP (Ryon et al., 2007 [44]) was expressed under control of sgs3-Gal4. […] For wing analyses, crosses were performed at least twice, and multiple progeny analyzed. […]
# as §2, with “Representative wings from the resulting adult flies were mounted and imaged as above.” left out
# [11] = test system: Myc-SmoC320A-induced Hh gain-of-function wing phenotypes; test: Thapsigargin feeding of larvae: adult wing phenotype, Myc-SmoC320A; format: in vivo, Drosophila; conditions: larvae grown at 22° C. on food containing thapsigargin (1 uM) vs vehicle
# Description: as §1, §8
# as §2, with “Representative wings from the resulting adult flies were mounted and imaged as above.” left out
smiles,measurement,setting,value
C/C=C(/C)C(=O)O[C@H]1C(C)=C2[C@H]([C@@H]1OC(=O)CCCCCCC)[C@@](C)(OC(C)=O)C[C@H](OC(=O)CCC)[C@@]1(O)[C@H]2OC(=O)[C@@]1(C)O [thapsigargin],C320A-mediated ectopic stabilization of Ci in wing imaginal discs,[1],reduced Ci stabilization; also recorded: dramatically reduced
same,GFP transgene expression,[2],unaffected
same,Myc-SmoC320A protein level in wing imaginal discs,[3],significantly reduced; also recorded: significant reduction
same,"gli1 expression, fold over baseline",[4],~4 fold
same,smo expression (wild type and M2 transcripts),[5],modest increase; also recorded: increased modestly
same,reduction of mSmoM2-mediated gli1 induction,"[6]; NIH3T3 cells, 250 nM thapsigargin ~16 hours (method), vehicle gives approx. 40-fold",approximately 50%
same,mSmoM2-induced gli1 expression (qualitative),"[6]; NIH3T3 cells, over-night treatment with 200 nM thapsigargin (FIG. 6B legend)",specific attenuation
same,"gli1 expression, fold over the mSmoWT baseline","[6]; mSmoM2-expressing NIH3T3 cells with thapsigargin, normalized to GAPDH",~18 fold
same,wild type mSmo protein stability,[7],not significantly affected
same,C318A mSmo protein stability,[8],destabilized
same,M2 mSmo protein stability,[9],destabilized
same,wing phenotype of wild type Myc-Smo expressing flies,[10],unaffected
same,wing phenotype of wild type Myc-Smo expressing flies,[10]; listed as Thapsigargin,did not affect
same,Myc-SmoC320A-induced Hh gain-of-function wing phenotype,[11],significantly attenuated; also recorded: significantly reduced
